In publication PMC6736360, “P-Glycoprotein–Mediated Efflux Reduces the In Vivo Efficacy of a Therapeutic Targeting the Gastrointestinal Parasite Cryptosporidium” (The Journal of Infectious Diseases, 2019):
Entries after “also recorded” stand apart in the source; their conditions may differ. Where two headings read alike, the source gives them in different places.

Experiments:
Cryptosporidium parvum = assay: C. parvum growth inhibition, nonpolarized HCT-8 coculture assay; type: cell-based; conditions: Cryptosporidium parvum
From the text: Information regarding C. parvum growth inhibition by BKIs, the hollow fiber model, liquid chromatography–tandem mass spectrometry (LC-MS/MS) methods, and the interferon γ (IFN-γ) knockout (KO) mouse model of C. parvum infection has been described in detail previously [[15], [20–23]]. Information on BKI permeability, LC-MS/MS quantification of elacridar, and quantification of Cryptosporidium by polymerase chain reaction analysis is described in the Supplementary Materials. Unless noted otherwise, statistical significance was determined with an unpaired Student t test, using a significance level of 0.05.
To evaluate the potential impact of P-gp efflux on BKI1318 in vitro efficacy, in vitro assays with polarized and nonpolarized HCT-8 cells were evaluated. The nonpolarized HCT-8 coculture assay to screen anti-Cryptosporidium drug candidates has been previously reported by us in detail. […] Based on the reported elacridar half maximal inhibitor concentration for the inhibition of P-gp, the P-gp activity was predicted to be reduced with both elacridar concentrations. […] Elacridar alone had no effect on C. parvum levels.

[1] = Caco-2 trans-well apparent permeability assay; type: in vitro ADME; conditions: human, Caco-2, 5 µM, pH 7.4
Experimental: To initially characterize the permeability of BKIs 1294, 1369, and 1318, the software MedChem Designer (Simulations +, Lancaster, CA) was used to predict the Peff. The in vitro apparent permeability (Papp) was carried out by Absorption Systems LP (Exton, PA) with a Caco-2 trans-well assay. Caco-2 cells (clone C2BBe1) were obtained from American Type Culture Collection (Manassas, VA) were grown to confluence on collagen-coated, microporous membranes in 12-well assay plates. The permeability assay buffer was Hanks’ balanced salt solution (HBSS) containing 10 mM HEPES and 15 mM glucose at a pH of 7.4. The buffer in the receiver chamber also contained 1% bovine serum albumin. The dosing solution concentration was 5 µM BKI in assay buffer, and the cell monolayers were dosed on the apical side (A?B) or basolateral side (B?A) and incubated at 37°C with 5% CO2 in a humidified incubator. After 120 minutes, samples were taken from the donor and receiver chambers in duplicate. The Papp was calculated with equation (1) and the percent recovery with equation (2).
Papp = (dCr/dt) × Vr/(A × CA) (1)
Percent Recovery = 100 × ((Vr × Cr^final) + (Vd × Cd^final))/(Vd × […]) (2)
where dCr/dt is the slope of the cumulative concentration in the receiver compartment versus time in µM s^-1; Vr is the volume of the receiver compartment in cm^3; Vd is the volume of the donor compartment in cm^3; A is the area of the insert (1.13 cm^2 for 12-well); CA is the average of the nominal dosing concentration and the measured 120 minute donor concentration in µM; CN is the nominal concentration of the dosing solution in µM; Cr^final is the cumulative receiver concentration in µM at the end of the incubation period; Cd^final is the concentration of the donor in µM at the end of the incubation period.
(§1) To ensure no damage was inflicted to the cell monolayers during the flux period, lucifer yellow flux was also measured post-experimentally for each monolayer. To determine whether BKIs 1294, 1369, and 1318 were substrates of P-gp in vitro, P-gp efflux was characterized using the Caco-2 permeability assay protocol with a few modifications. The dosing solution concentration was 5 μM of BKI in the assay buffer +/- 1 μM valspodar. Cells were first pre-incubated for 30 minutes with HBSS containing +/- 1 μM valspodar. Cell monolayers were dosed on the apical side (A?B) or basolateral side (B?A), and incubated at 37°C with 5% CO2 in a humidified incubator. Samples were taken from the donor and receiver chambers at 120 minutes. Each determination was performed in duplicate.

C. parvum = assay: Hollow fiber in vitro Cryptosporidium culture with polarized HCT-8 cells; type: cell-based, Cryptosporidium parvum
Experimental: C. parvum was cultured using a hollow fiber bioreactor modified for evaluation of potential chemotherapeutic compounds [[21–23]]. Briefly, the system used a 20-kD MWCO polysulfone fiber cartridge (FiberCell Systems, Frederick, MD). HCT-8 cells were grown on the outer surface of the fibers (extracapillary space), and reservoirs were used to provide nutrients to the cells. When the glucose concentration decreased to at least 2 g/L, the extracapillary space was inoculated with 10^6C. parvum (Iowa isolate, Bunch Grass Farms, Deary, ID). […] Compound concentration was reduced over time by the flow of medium through the extracapillary and intracapillary spaces. Samples were removed from the extracapillary space once per day for evaluation of parasite numbers.
C. parvum growth was determined by analysis of the amount of C. parvum 18S-rRNA present and compared to the HCT-8 18S-rRNA as previously described^3. Briefly this was performed by centrifugation at 14,000 x g for 5 min of 0.5 mL samples collected from the extracapillary space (ECS). The pellet was resuspended in 100 µL of iScript buffer and subject to 6-freeze/thaw cycles comprising 1 min in liquid nitrogen followed by 1.5 min at 70 °C. The lysate was collected by centrifugation at 16,162 x g for 5 min, and the RNA purified according to the manufacturer’s instructions (iScriptTM, RT-qPCR sample preparation kit, Bio-Rad Laboratories). C. parvum was enumerated by quantitating the Cp18S-rRNA using the following specific forward and reverse primers - Cp18S-995F: 5’-[…]-3’ and Cp18S-1206R: 5’-[…]-3’ and compared to the human Hs18S-rRNA using the following primer sets - Hs18S-F1373: 5’-[…]-3’ and Hs18S-R1561: 5’-[…]-3’. The amount of 18S-rRNA was determined using 5 ng samples by RT-qPCR as described the manufacturer instructions using a Luna Universal One-Step® RT-qPCR kit (New England Biologics) and a Quant Studio 6 Flex 44 instrument. The cell number is calculated from the CT means using a set of standards prepared from 10^4, 10^5, and 10^6 C. parvum oocysts and compared to 10^4, 10^5, and 10^6 HCT-8 cells.

P-gp = molecular target: T1, P-gp (Homo sapiens, UniProt P08183); assay: Caco-2 P-gp efflux assay +/- valspodar; type: in vitro ADME; conditions: for P-gp Substrate Classification: Caco-2
T1 construct: endogenous in cells; host or cells: Caco-2 cells (clone C2BBe1, ATCC); assay run by Absorption Systems LP
From the text: Given the well-known role of P-gp in the efflux of many diverse drugs, the adenosine triphosphate–binding cassette (ABC) transporter was specifically chosen for initial studies, to identify the transporter responsible for BKI1318’s relatively low Papp. A Caco-2 system with overexpression of P-gp was used to verify the role of P-gp in BKI1318 transport (Supplementary Table 2). […] It should be noted that this experiment characterized the importance of P-gp with a single concentration of BKI1318. The kinetics of BKI1318 transport mediated by P-gp are still unknown, and it is not clear how the fraction of absorption mediated by P-gp transport will change with different concentrations of BKI1318.
as §1

[2] = HCT-8, in vitro, read-out: C. parvum EC50

T1 sequence (P08183 whole entry): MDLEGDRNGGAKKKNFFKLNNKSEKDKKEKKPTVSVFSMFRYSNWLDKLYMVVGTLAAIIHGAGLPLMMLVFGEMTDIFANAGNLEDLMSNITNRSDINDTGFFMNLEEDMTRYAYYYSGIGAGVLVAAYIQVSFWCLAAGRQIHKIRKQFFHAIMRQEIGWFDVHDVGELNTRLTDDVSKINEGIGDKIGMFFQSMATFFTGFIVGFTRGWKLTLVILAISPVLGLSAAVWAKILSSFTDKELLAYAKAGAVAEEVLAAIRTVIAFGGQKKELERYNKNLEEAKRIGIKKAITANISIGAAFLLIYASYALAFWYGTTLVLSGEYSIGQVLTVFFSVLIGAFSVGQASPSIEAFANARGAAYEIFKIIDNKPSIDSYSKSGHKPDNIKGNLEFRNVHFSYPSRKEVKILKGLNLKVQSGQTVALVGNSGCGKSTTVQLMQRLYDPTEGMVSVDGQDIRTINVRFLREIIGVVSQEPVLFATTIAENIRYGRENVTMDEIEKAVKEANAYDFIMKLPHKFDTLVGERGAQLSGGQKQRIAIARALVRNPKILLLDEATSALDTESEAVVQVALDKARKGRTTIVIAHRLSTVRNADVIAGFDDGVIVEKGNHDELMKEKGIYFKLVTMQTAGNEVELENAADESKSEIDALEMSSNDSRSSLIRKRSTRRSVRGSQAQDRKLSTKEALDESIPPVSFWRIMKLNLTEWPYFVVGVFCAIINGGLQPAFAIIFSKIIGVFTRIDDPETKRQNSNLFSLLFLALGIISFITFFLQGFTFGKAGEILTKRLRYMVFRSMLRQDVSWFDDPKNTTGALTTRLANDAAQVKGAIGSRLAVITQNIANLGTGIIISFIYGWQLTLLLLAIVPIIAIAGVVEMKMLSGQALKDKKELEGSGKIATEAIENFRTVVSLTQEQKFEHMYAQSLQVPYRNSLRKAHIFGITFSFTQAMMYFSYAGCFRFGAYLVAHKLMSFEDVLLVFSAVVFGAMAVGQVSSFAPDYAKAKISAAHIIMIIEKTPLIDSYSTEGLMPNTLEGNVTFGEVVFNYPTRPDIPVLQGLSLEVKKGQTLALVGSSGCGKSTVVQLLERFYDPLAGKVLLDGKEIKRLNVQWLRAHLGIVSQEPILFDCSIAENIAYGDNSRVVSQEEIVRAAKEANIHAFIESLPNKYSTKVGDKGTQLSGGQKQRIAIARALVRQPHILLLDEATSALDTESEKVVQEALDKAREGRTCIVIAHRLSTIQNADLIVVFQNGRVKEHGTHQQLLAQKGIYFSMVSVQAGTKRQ

| Structure (SMILES) | EC50 (Cryptosporidium parvum; [2]) | Papp A→B at 120 min, 5 µM [1] | Papp B→A at 120 min, 5 µM [1] | Reduction of C. parvum levels over the course of the study (C. parvum; hollow fiber model, polarized HCT-8 cells) | P-gp Substrate Classification (P-gp) | EC50 (Cryptosporidium parvum; nonpolarized HCT-8 cells, BKI1318 alone, read-out: EC50 (±standard error) against C. parvum) | efflux ratio at 120 min, 5 µM [1] | Effect on C. parvum levels/growth (C. parvum; hollow fiber model, compound alone, 80 µM once daily) | Effect on C. parvum levels with elacridar coadministered (C. parvum; hollow fiber model, elacridar coadministered) | Reduction in C. parvum levels with elacridar (80 µM) coadministered (C. parvum; hollow fiber, 80 µM BKI1318 once daily plus 80 µM elacridar) | efflux ratio at 120 min, 5 µM (P-gp; human, pH 7.4, Caco-2 with overexpression of P-gp, 5 μM, no inhibitor) |
| --- | --- | --- | --- | --- | --- | --- | --- | --- | --- | --- | --- |
| CCOc1ccc2cc(-c3nn(CC4CCN(C)CC4)c4ncnc(N)c34)ccc2n1 [BKI1369] | 2.3 µM | 124 nm/s | 327 nm/s | > 3 orders of magnitude | Negative | – | – | – | – | – | – |
| CCOc1ccc2cc(-c3nn(CC4CCNCC4)c4ncnc(N)c34)ccc2n1 [BKI1318] | 3.2 µM | 2.9 nm/s | 203 nm/s | – | Positive | 1.6 ± 1.5 µM | 69 | did not decrease; also recorded: no effect | reduced C. parvum levels by an order of magnitude | approximately 1 log | 19 |
